In patent US20100086513A1, “Method for Effecting Antimicrobial Activity Using Polyamine Analogues” (priority 2008, published 2010):
Values after ≈ are worked out from the molar mass of the structure shown.

Assays:
[1] = tested on: E. coli K12; type: cell-based, Escherichia coli
[2] = tested on: Y. pestis KIM6+; type: cell-based, Yersinia pestis
[3] = tested on: E. coli K12 cells + pBR322; type: cell-based, Escherichia coli
[4] = tested on: Y. pestis KIM6+; type: cell-based, Yersinia pestis; remark: listed apart in the source

Structure (SMILES): NCCCCN [putrescine]
- uptake of [14C] putrescine [1]: ability to transport significant amounts
- uptake of [14C] putrescine [2]: ability to transport significant amounts

Structure (SMILES): CC[C@H](C)[C@H](NC(=O)CN)C(=O)NCC(=O)N[C@@H](C)C(=O)N[C@H](C(=O)N[C@@H](CC(C)C)C(=O)N[C@@H](CCCCN)C(=O)N[C@H](C(=O)N[C@@H](CC(C)C)C(=O)N[C@H](C(=O)N[C@H](C(=O)NCC(=O)N[C@@H](CC(C)C)C(=O)N1CCC[C@H]1C(=O)N[C@@H](C)C(=O)N[C@@H](CC(C)C)C(=O)N[C@H](C(=O)N[C@@H](CO)C(=O)N[C@@H](Cc1c[nH]c2ccccc12)C(=O)N[C@H](C(=O)N[C@@H](CCCCN)C(=O)N[C@@H](CCCNC(=N)N)C(=O)N[C@@H](CCCCN)C(=O)N[C@@H](CCCNC(=N)N)C(=O)N[C@@H](CCC(N)=O)C(=O)N[C@@H](CCC(N)=O)C(N)=O)[C@@H](C)CC)[C@@H](C)CC)[C@@H](C)O)[C@@H](C)O)C(C)C)C(C)C [mellitin]
- release of β-lactamase (Nitrocefin absorption at 486 nm) [3]: a reaction of Nitrocefin to β-lactamase occurs almost immediately

Structure (SMILES): NCCCCNCCCN [spermidine]
- transport of [14C] spermidine [1]: able to transport a significant amount
- transport of [14C] spermidine [2]: effectively unable to transport

Structure (SMILES): N=C(NCCCNCCCCCCCNCCCNC(=N)NC(=N)NCCC(c1ccccc1)c1ccccc1)NC(=N)NCCC(c1ccccc1)c1ccccc1 [XBI-54-13B]
- MIC [4]: 1.56 mg/L (≈ 1.95 µM)
- release of β-lactamase (Nitrocefin absorption at 486 nm) [3]: quickly causes a release of β-lactamase
